Source: ChEMBL document CHEMBL1201862, “PubChem BioAssay data set” (2004)
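Method: 48-hour compound exposure of cells in 96-well plates, five concentrations, linear interpolation of endpoints. The concentration for 50% growth inhibition is given as GI50.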 The source made the active and inactive calls. No stated cut-off is given here; in the data, active = GI50 up to about 1.1 µM and inactive = higher.

How the values were obtained:
Experiment in all cases: NCI anticancer screen, dose series, 48 h
HOP-92 = test system: HOP-92
HCT-116 = test system: HCT-116
SF-539 = test system: SF-539
SF-295 = test system: SF-295
SK-MEL-5 = test system: SK-MEL-5
OVCAR-8 = test system: OVCAR-8
OVCAR-4 = test system: OVCAR-4
HCC 2998 = test system: HCC 2998
OVCAR-5 = test system: OVCAR-5
786-0 = test system: 786-0
SNB-75 = test system: SNB-75
SF-268 = test system: SF-268
U-251 = test system: U-251
HT-29 = test system: HT-29
CAKI-1 = test system: CAKI-1
NCI-H522 = test system: NCI-H522
SR = test system: SR

Measured: GI50

COc1ccc(CC2NCCc3c2[nH]c2ccccc32)cc1 (stereo not given)
inactive: HOP-92 16 µM | HCT-116 40 µM | SF-539 42.1 µM | SF-295 96.6 µM | SK-MEL-5 40.9 µM | OVCAR-8 > 100 µM | OVCAR-4 54 µM | HCC 2998 23.7 µM | OVCAR-5 > 100 µM | 786-0 > 100 µM | SNB-75 39.1 µM | SF-268 79.6 µM | U-251 82 µM | HT-29 28.3 µM

Cc1ccc(Nc2nc3c(s2)C(=O)c2ccccc2C3=O)cc1
inactive: HOP-92 2.86 µM | CAKI-1 1.63 µM | NCI-H522 1.8 µM | SF-539 5.35 µM | SF-295 1.6 µM | SK-MEL-5 1.75 µM | OVCAR-8 2.18 µM | OVCAR-4 1.55 µM | HCC 2998 2.01 µM | OVCAR-5 1.91 µM | 786-0 1.88 µM | SNB-75 2.14 µM | SF-268 1.9 µM | U-251 1.89 µM | HT-29 3.18 µM

CCOC(=O)Nc1ccc(S(=O)(=O)I)cc1.CCOC(=O)Nc1ccc(S(=O)(=O)I)cc1.CN(C=O)C1=C(N(C)C=O)C(N(C)C=O)=C(N(C)C=O)C(=O)C1=O
inactive: SR > 100 µM | HOP-92 > 100 µM | CAKI-1 > 100 µM | HCT-116 > 100 µM | SF-539 > 100 µM | SF-295 > 100 µM | OVCAR-8 > 100 µM | HCC 2998 > 100 µM | OVCAR-5 > 100 µM | 786-0 > 100 µM | SF-268 > 100 µM | U-251 > 100 µM | HT-29 > 100 µM

CC(C)N(C(=O)C12C3C4C5C3C1(C(=O)O)C5C42)C(C)C (stereo not given)
inactive: HOP-92 > 100 µM | CAKI-1 > 100 µM | NCI-H522 > 100 µM | HCT-116 > 100 µM | SF-539 > 100 µM | SF-295 > 100 µM | SK-MEL-5 > 100 µM | OVCAR-8 > 100 µM | OVCAR-4 > 100 µM | HCC 2998 > 100 µM | OVCAR-5 > 100 µM | 786-0 > 100 µM | SNB-75 61.2 µM | SF-268 > 100 µM | U-251 > 100 µM | HT-29 > 100 µM

CC(=O)OC12CCCCC1C1(CCCC1)NC2=O (stereo not given)
inactive: SR > 100 µM | HCT-116 > 100 µM | SF-539 > 100 µM | SF-295 > 100 µM | OVCAR-8 > 100 µM | OVCAR-4 > 100 µM | HCC 2998 > 100 µM | OVCAR-5 > 100 µM | 786-0 > 100 µM | SNB-75 > 100 µM | SF-268 > 100 µM | U-251 > 100 µM | HT-29 > 100 µM

COc1cccc(N2C(=O)[C@H]3[C@H]4CC(C(C)(C)C)CC[C@H]4c4c([nH]c5ccccc45)[C@H]3C2=O)c1 (stereo not given in full)
inactive: CAKI-1 17.2 µM | NCI-H522 19.4 µM | SF-539 23 µM | SF-295 15.1 µM | SK-MEL-5 18 µM | OVCAR-8 14.9 µM | HCC 2998 28.4 µM | 786-0 16.6 µM | SNB-75 15.3 µM | SF-268 27.3 µM | HT-29 21.3 µM

CC(=O)C1C(=O)C(=O)N(CCN2C(=O)C(=O)C(C(C)=O)C2=O)C1=O (stereo not given)
inactive: HOP-92 > 100 µM | CAKI-1 > 100 µM | NCI-H522 > 100 µM | HCT-116 > 100 µM | SF-539 > 100 µM | SF-295 > 100 µM | SK-MEL-5 > 100 µM | OVCAR-8 > 100 µM | OVCAR-4 > 100 µM | HCC 2998 > 100 µM | OVCAR-5 > 100 µM | 786-0 > 100 µM | SNB-75 > 100 µM | SF-268 > 100 µM | U-251 > 100 µM | HT-29 > 100 µM

CCc1c(OC(C)=O)c2c(NC3OC(COC(C)=O)C(OC(C)=O)C(OC(C)=O)C3OC(C)=O)nc(OC)nc2oc1=O (stereo not given)
inactive: CAKI-1 > 100 µM | HCT-116 > 100 µM | SF-539 > 100 µM | SF-295 > 100 µM | SK-MEL-5 > 100 µM | OVCAR-8 > 100 µM | OVCAR-4 > 100 µM | HCC 2998 > 100 µM | OVCAR-5 > 100 µM | 786-0 > 100 µM | SNB-75 > 100 µM | U-251 > 100 µM | HT-29 > 100 µM

O=C1[C@H]2ON(c3ccccc3)C(c3ccccc3)[C@H]2C(=O)N1c1ccc(Cc2ccc(N3C(=O)[C@@H]4ON(c5ccccc5)C(c5ccccc5)[C@@H]4C3=O)cc2)cc1 (stereo not given in full)
inactive: HOP-92 > 100 µM | CAKI-1 > 100 µM | SF-539 > 100 µM | SF-295 > 100 µM | SK-MEL-5 > 100 µM | OVCAR-4 > 100 µM | HCC 2998 > 100 µM | OVCAR-5 > 100 µM | 786-0 > 100 µM | SNB-75 > 100 µM | SF-268 > 100 µM | U-251 > 100 µM | HT-29 > 100 µM

Cc1nc2ccccc2c(=O)n1/N=C(\N=N\c1cc(Cl)ccc1Cl)c1cccc(-c2ccco2)c1
inactive: HOP-92 27.6 µM | CAKI-1 > 100 µM | HCT-116 53.3 µM | SF-539 > 100 µM | SF-295 > 100 µM | SK-MEL-5 96.4 µM | OVCAR-8 95.9 µM | OVCAR-4 > 100 µM | HCC 2998 > 100 µM | OVCAR-5 > 100 µM | 786-0 > 100 µM | SNB-75 > 100 µM | SF-268 92 µM | U-251 > 100 µM | HT-29 > 100 µM

c1cnc2nc3n(c2c1)CSC3
inactive: HOP-92 > 100 µM | CAKI-1 > 100 µM | NCI-H522 > 100 µM | SF-539 > 100 µM | SF-295 > 100 µM | SK-MEL-5 > 100 µM | OVCAR-8 > 100 µM | OVCAR-4 > 100 µM | HCC 2998 > 100 µM | OVCAR-5 > 100 µM | 786-0 > 100 µM | SNB-75 > 100 µM | SF-268 > 100 µM | U-251 > 100 µM | HT-29 > 100 µM

O=S(=O)(N/N=C/c1ccc(Cl)c(Cl)c1)c1ccccc1
inactive: SR 42.3 µM | HOP-92 9.82 µM | CAKI-1 33.2 µM | HCT-116 35.1 µM | SF-539 44.8 µM | SF-295 33.9 µM | SK-MEL-5 54 µM | OVCAR-8 25.7 µM | OVCAR-4 55 µM | HCC 2998 30.2 µM | OVCAR-5 38.2 µM | 786-0 31.8 µM | SNB-75 52 µM | SF-268 31 µM | U-251 33.7 µM | HT-29 40.1 µM

Cc1ccccc1-n1c2nc(=O)n(C)c(=O)c-2nc2ccccc21
inactive: CAKI-1 24.4 µM | NCI-H522 14.9 µM | HCT-116 14.6 µM | SF-539 15.2 µM | SF-295 14.2 µM | SK-MEL-5 10.6 µM | OVCAR-8 12.2 µM | OVCAR-4 13.6 µM | HCC 2998 10.8 µM | OVCAR-5 20.5 µM | 786-0 15.8 µM | SNB-75 20.1 µM | SF-268 12.7 µM | U-251 17.3 µM | HT-29 4.24 µM
